Source: ChEMBL document CHEMBL5370531, “Design, synthesis and pharmacological evaluation of 2,3-dihydrobenzofuran IRAK4 inhibitors for the treatment of diffuse large B-cell lymphoma” (Eur J Med Chem, 2023)

Legend:
[1] = biological target: T1, Interleukin-1 receptor-associated kinase 4 (Homo sapiens, UniProt Q9NWZ3); test: Inhibition of IRAK4 (unknown origin) by Z-LYTE enzymatic kinase assay
T1 sequence (Q9NWZ3 whole entry): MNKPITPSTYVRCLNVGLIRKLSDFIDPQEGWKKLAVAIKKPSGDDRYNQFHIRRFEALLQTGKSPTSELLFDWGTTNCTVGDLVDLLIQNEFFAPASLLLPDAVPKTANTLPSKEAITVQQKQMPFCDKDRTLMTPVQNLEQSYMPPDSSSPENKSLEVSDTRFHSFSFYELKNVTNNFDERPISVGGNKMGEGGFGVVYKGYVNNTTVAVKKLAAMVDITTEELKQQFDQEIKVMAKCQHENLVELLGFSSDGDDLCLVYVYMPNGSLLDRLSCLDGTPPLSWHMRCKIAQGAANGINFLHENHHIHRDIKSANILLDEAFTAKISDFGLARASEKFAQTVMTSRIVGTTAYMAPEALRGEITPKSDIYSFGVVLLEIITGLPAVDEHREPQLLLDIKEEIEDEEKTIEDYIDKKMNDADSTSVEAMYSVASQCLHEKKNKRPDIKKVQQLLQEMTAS

OCI-Ly10 = test: Cytotoxicity against human OCILY10 cells assessed as inhibition of cell proliferation incubated for 72 hrs by CCK-8 assay; format: functional, cell-based; settings: OCI-Ly10, 72 h
[2] = Cytotoxicity against human GM00637 cells assessed as inhibition of cell proliferation incubated for 72 hrs by CCK-8 assay; format: toxicity, cell-based
U2932 = test: Cytotoxicity against human U2932 cells assessed as inhibition of cell proliferation incubated for 72 hrs by CCK-8 assay; format: functional, cell-based; settings: U2932, 72 h

SMILES | IC50 [1] | IC50 (OCI-Ly10) | IC50 at 72 h [2] | IC50 (U2932)
CC1(C)Cc2cc(NC(=O)c3coc(-c4ccnc(N)c4)n3)c(N3CCC(C(N)=O)CC3)cc2O1 | 28.5 nM |  |  | 
CC1(C)Cc2cc(NC(=O)c3coc(-c4ccnc(N)c4)n3)c(-c3ccnc(C#N)c3)cc2O1 | > 100 nM |  |  | 
CC1(C)Cc2cc(NC(=O)c3coc(N4CC[C@@H](N)C4)n3)c(N3CCC(CO)CC3)cc2O1 | 65.9 nM |  |  | 
CC1(C)Cc2cc(NC(=O)c3cnn4cccnc34)c(N3CCC(CO)CC3)cc2O1 | 2.9 nM | 12400 nM |  | 
CC1(C)Cc2cc(NC(=O)c3cccc(-c4ccnc(N)c4)n3)c(N3CCC(CO)CC3)cc2O1 | > 100 nM |  |  | 
CC(=O)Nc1cc(-c2nc(C(=O)Nc3cc4c(cc3N3CCC(CO)CC3)OC(C)(C)C4)co2)ccn1 | 62.7 nM |  |  | 
COc1cc(-c2cc3c(cc2NC(=O)c2coc(-c4ccnc(N)c4)n2)CC(C)(C)O3)ccn1 | 22.8 nM |  |  | 
Cc1cc(-c2nc(C(=O)Nc3cc4c(cc3N3CCC(CO)CC3)OC(C)(C)C4)co2)ccn1 | > 100 nM |  |  | 
CC(C)n1cc(-c2cc3c(cc2NC(=O)c2coc(-c4ccnc(N)c4)n2)CC(C)(C)O3)cn1 | 24.7 nM |  |  | 
CC1(C)Cc2cc(NC(=O)c3coc(-c4ccnc(N)c4)n3)c(-c3ccnc(C(F)(F)F)c3)cc2O1 | > 100 nM |  |  | 
CC1(C)Cc2cc(NC(=O)c3coc(-c4ccncc4)n3)c(N3CCC(CO)CC3)cc2O1 | 22.1 nM |  |  | 
COc1ccc(-c2cc3c(cc2NC(=O)c2coc(-c4ccnc(N)c4)n2)CC(C)(C)O3)cn1 | 26.8 nM |  |  | 
CC1(C)Cc2cc(NC(=O)c3cccc(N4CCC[C@@H](N)C4)n3)c(N3CCC(CO)CC3)cc2O1 | > 100 nM |  |  | 
Cc1ccc(-c2cc3c(cc2NC(=O)c2coc(-c4ccnc(N)c4)n2)CC(C)(C)O3)cn1 | 12.8 nM | 3160 nM | > 50000 nM | > 50000 nM
CC1(C)Cc2cc(NC(=O)c3coc(-c4ccnc(N)c4)n3)c(-c3ccc(C#N)nc3)cc2O1 | 42.1 nM |  |  | 
Cn1cc(-c2cccc(C(=O)Nc3cc4c(cc3N3CCC(CO)CC3)OC(C)(C)C4)n2)cn1 | 73.8 nM |  |  | 
Cc1cc(-c2cc3c(cc2NC(=O)c2coc(-c4ccnc(N)c4)n2)CC(C)(C)O3)cc(C)n1 | > 100 nM |  |  | 
CC1(C)Cc2cc(NC(=O)c3coc(-c4ccnc(N)c4)n3)c(N3CCN(CC(N)=O)CC3)cc2O1 | 11.6 nM |  |  | 

SMILES | IC50 [1] | IC50 (OCI-Ly10) | IC50 at 72 h [2] | IC50 (U2932)
CC1(C)Cc2cc(NC(=O)c3cccc(N4CC[C@@H](N)C4)n3)c(N3CCC(CO)CC3)cc2O1 | > 100 nM |  |  | 
CC1(C)Cc2cc(NC(=O)c3coc(-c4ccnc(N)c4)n3)c(-c3ccoc3)cc2O1 | 10.2 nM | 401 nM | > 50000 nM | 2450 nM
CC1(C)Cc2cc(NC(=O)c3coc(-c4ccnc(N)c4)n3)c(N3CCC(CN)CC3)cc2O1 | 14 nM |  |  | 
CC1(C)Cc2cc(NC(=O)c3coc(-c4ccnc(N)c4)n3)c(N3CCC(CO)CC3)cc2O1 | 2.1 nM | 336 nM |  | 
CC1(C)Cc2cc(NC(=O)c3coc(N4CCC[C@@H](N)C4)n3)c(N3CCC(CO)CC3)cc2O1 | > 100 nM |  |  | 
Cc1cc(-c2cc3c(cc2NC(=O)c2coc(-c4ccnc(N)c4)n2)CC(C)(C)O3)ccn1 | 30.3 nM |  |  | 
CC1(C)Cc2cc(NC(=O)c3coc(-c4ccnc(N)c4)n3)c(-c3ccc(C(F)(F)F)nc3)cc2O1 | 25.3 nM |  |  | 
CC1(C)Cc2cc(NC(=O)c3cccc(-c4ccc(N)nc4)n3)c(N3CCC(CO)CC3)cc2O1 | > 100 nM |  |  | 
CC1(C)Cc2cc(NC(=O)c3coc(-c4ccnc(N)c4)n3)c(N3CCC(C(C)(C)O)CC3)cc2O1 | 60.9 nM |  |  | 
CCn1cc(-c2cc3c(cc2NC(=O)c2coc(-c4ccnc(N)c4)n2)CC(C)(C)O3)cn1 | 18.5 nM |  |  | 
CC1(C)Cc2cc(NC(=O)c3coc(-c4ccnc(N)c4)n3)c(N3CCN(CCO)CC3)cc2O1 | 7.4 nM |  |  | 
Cc1ncc(-c2cc3c(cc2NC(=O)c2coc(-c4ccnc(N)c4)n2)CC(C)(C)O3)cn1 | 14 nM | 823 nM | > 50000 nM | 5180 nM
CC1(C)Cc2cc(NC(=O)c3cnn4cccnc34)c(N3CCOCC3)cc2O1 | 6.1 nM |  |  | 
CC1(C)Cc2cc(NC(=O)c3coc(-c4ccnc(N)c4)n3)c(N3CCC(O)CC3)cc2O1 | 32.7 nM |  |  | 
CC1(C)Cc2cc(NC(=O)c3coc(-c4ccnc(N)c4)n3)c(N3CCOCC3)cc2O1 | 2.6 nM | 109 nM | 312 nM | 181 nM
CC1(C)Cc2cc(NC(=O)c3coc(-c4ccnc(N)c4)n3)c(-c3cncnc3)cc2O1 | 12.7 nM | 669 nM | 4630 nM | 2090 nM
Cc1noc(C)c1-c1cc2c(cc1NC(=O)c1coc(-c3ccnc(N)c3)n1)CC(C)(C)O2 | > 100 nM |  |  | 
